24 compounds from ChEMBL document CHEMBL1128901, “C-Attached aminoalkylindoles: potent cannabinoid mimetics” (Bioorg Med Chem Lett, 1996) can be followed below.

Molecules are shown by their SMILES.

The species named for one test is Mus musculus. Kind of test: In vitro inhibition of electrically induced contractions in isolated mouse vas deferens (MVD) preparations. Format: functional.
The next test addresses Cannabinoid receptor (Rattus norvegicus, UniProt Q9QZN9+P20272). Kind of test: Compound was evaluated for the inhibition of [3H]WIN-55212-2 binding in rat cerebellum membranes. The class given is cell membranes, Membrane.
Test [1] deals with T1, Cannabinoid receptor (Rattus norvegicus) (UniProt Q9QZN9+P20272). Kind of test: Compound was evaluated for the inhibition of [3H]WIN-55212-2 binding in rat cerebellum membranes at the concentration 1000 nM. Format: cell membranes. The settings on record: Membrane.
T1 sequence (P20272 whole entry, looked up): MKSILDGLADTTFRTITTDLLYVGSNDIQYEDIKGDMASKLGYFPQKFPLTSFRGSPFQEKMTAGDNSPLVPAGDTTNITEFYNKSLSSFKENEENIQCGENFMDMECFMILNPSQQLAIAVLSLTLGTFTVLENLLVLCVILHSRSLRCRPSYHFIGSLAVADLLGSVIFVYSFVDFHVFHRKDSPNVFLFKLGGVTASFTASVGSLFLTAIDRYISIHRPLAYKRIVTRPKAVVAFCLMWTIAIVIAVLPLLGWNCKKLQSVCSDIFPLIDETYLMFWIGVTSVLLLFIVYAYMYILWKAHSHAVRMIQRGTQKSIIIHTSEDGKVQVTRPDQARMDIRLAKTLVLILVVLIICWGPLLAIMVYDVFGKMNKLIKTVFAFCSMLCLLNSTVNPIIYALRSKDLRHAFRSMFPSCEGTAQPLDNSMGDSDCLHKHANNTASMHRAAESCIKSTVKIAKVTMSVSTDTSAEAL
T1 sequence (Q9QZN9 whole entry, looked up): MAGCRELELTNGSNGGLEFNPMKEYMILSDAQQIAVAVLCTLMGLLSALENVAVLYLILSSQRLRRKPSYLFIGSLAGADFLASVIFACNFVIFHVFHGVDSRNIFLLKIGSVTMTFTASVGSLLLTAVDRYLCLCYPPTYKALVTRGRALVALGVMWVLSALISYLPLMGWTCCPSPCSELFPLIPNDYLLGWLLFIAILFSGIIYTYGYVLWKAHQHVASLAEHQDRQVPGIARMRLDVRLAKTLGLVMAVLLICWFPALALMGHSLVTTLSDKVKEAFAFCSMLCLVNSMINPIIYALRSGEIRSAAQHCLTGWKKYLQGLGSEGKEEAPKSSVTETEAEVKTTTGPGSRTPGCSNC
Test [2] addresses T1, Cannabinoid receptor (Rattus norvegicus). Kind of test: Compound was evaluated for the inhibition of [3H]WIN-55212-2 binding in rat cerebellum membranes at the concentration 3000 nM. Format: cell membranes. The settings on record: Membrane.

Regarding `CN1CCCCC1Cn1cc(C(=O)c2cccc3ccccc23)c2ccccc21` (centres undefined), the 50% inhibitory concentration (IC50) (commonly the concentration needed to halve the response being measured) in the test filed under Mus musculus turned out to be 0.47 nM; at Cannabinoid receptor, 1.22 nM.

`COc1ccc(C(=O)c2c(C)n(C3CCN(C)CC3)c3ccccc23)cc1`: the IC50 in the test listed under Mus musculus is above 10000 nM. For the compound `CN1CCN(C)C(Cn2cc(C(=O)c3cccc4ccccc34)c3ccccc32)C1` (centres undefined), the figures for the IC50 in the test listed under Mus musculus and on Cannabinoid receptor were 15 nM and 51 nM, respectively. Regarding `COc1ccc(C(=O)c2c(C)n(CC3CSCCN3C)c3ccccc23)cc1` (centres undefined), in the test filed under Mus musculus, the IC50 was 1150 nM. Moreover, the inhibition (in general, the drop in the measured response relative to a control, in per cent) in test [1] was 40%. For the compound `CN1CCOCC1Cn1cc(C(=O)c2cccc3ccccc23)c2ccccc21` (centres undefined), the IC50 in the test filed under Mus musculus is 0.4 nM; on Cannabinoid receptor, 3 nM.

Regarding `Cc1c(C(=O)c2cccc3ccccc23)c2ccccc2n1CC1CCCN1C` (centres undefined), the values for the IC50 in the test listed under Mus musculus and on Cannabinoid receptor were 2.4 nM and 6.5 nM, respectively. Compound `COc1ccc(C(=O)c2c(C)n(CC3COCCN3C)c3ccccc23)cc1` (centres undefined) came in with an IC50 in the test listed under Mus musculus of 210 nM. Further, the inhibition in test [2] stood at 43%.

For the compound `O=C(c1cccc2ccccc12)c1cn(CC2CCCCN2)c2ccccc12` (centres undefined), the IC50 in the test filed under Mus musculus was determined as 3 nM; at Cannabinoid receptor, 6.6 nM. `Cc1c(C(=O)c2cccc3ccccc23)c2ccccc2n1CC1CCCCN1C` (centres undefined): the IC50 in the test listed under Mus musculus stood at 1.2 nM; on Cannabinoid receptor it was 5.4 nM.

Consider `COc1ccc(C(=O)c2cn(CC3CCCCN3C)c3ccccc23)cc1` (centres undefined), for which the figures for the IC50 in the test listed under Mus musculus and at Cannabinoid receptor were 2.6 nM and 9.7 nM, respectively. On to `COc1ccc(C(=O)c2c(C)n(CC3CCCN3)c3ccccc23)cc1` (centres undefined), for which the midpoint of inhibition in the test filed under Mus musculus, the IC50, lay at 220 nM. As to `COc1ccc(C(=O)c2c(C)n(CC3CN(C)CCO3)c3ccccc23)cc1` (centres undefined), the IC50 in the test listed under Mus musculus was above 10000 nM. With `COc1ccc(C(=O)c2c(C)n(C3CCCN(C)C3)c3ccccc23)cc1` (centres undefined), in the test listed under Mus musculus, the Inhibition (usually how much of the control response was suppressed) turned out to be 80%. In turn, `O=C(c1cccc2ccccc12)c1cn(CCN2CCOCC2)c2ccccc12` showed an IC50 on Cannabinoid receptor of 7.8 nM.

`COc1ccc(C(=O)c2c(C)n(CC3C[S+]([O-])CCN3C)c3ccccc23)cc1` (centres undefined) came in with an IC50 in the test listed under Mus musculus above 10000 nM. Further, the inhibition in test [1] is -10%. In the test listed under Mus musculus, `COc1ccc(C(=O)c2c(C)n(CC3CN(C)CCN3C)c3ccccc23)cc1` (centres undefined) returned an IC50 of 1430 nM. Besides, the inhibition in test [1] was -8%. In the test filed under Mus musculus, `COc1ccc(C(=O)c2c(C)n(CCC3CCCCN3C)c3ccccc23)cc1` (centres undefined) yielded an IC50 above 10000 nM. As to `COc1ccc(C(=O)c2c(C)n(C[C@H]3CCCN3C)c3ccccc23)cc1`, in the test listed under Mus musculus, the Inhibition was determined as 80%. The inhibition in test [1] was 7%. The compound `CCN1CCCC1Cn1c(C)c(C(=O)c2ccc(OC)cc2)c2ccccc21` (centres undefined) displayed an IC50 in the test filed under Mus musculus above 10000 nM. In the test listed under Mus musculus, `COc1ccc(C(=O)c2cn(CC3CCCN3C)c3ccccc23)cc1` (centres undefined) had an IC50 of 8 nM.

For the compound `COc1ccc(C(=O)c2c(C)n(C[C@@H]3CCCN3C)c3ccccc23)cc1`, the values for the IC50 in the test listed under Mus musculus and at Cannabinoid receptor were 37 nM and 497 nM, respectively. In the test listed under Mus musculus, `COc1ccc(C(=O)c2c(C)n(CC3CCCN3C)c3ccccc23)cc1` (centres undefined) showed an IC50 of 63 nM. Besides, in test [1], the inhibition is 53%. For `COc1ccc(C(=O)c2c(C)n(CC3CCCCN3C)c3ccccc23)cc1` (centres undefined), the results for the IC50 in the test listed under Mus musculus and on Cannabinoid receptor were 134 nM and 699 nM, respectively. Compound `COc1ccc(C(=O)c2c(C)n(CC3CCCN(C)C3)c3ccccc23)cc1` (centres undefined) showed an IC50 in the test listed under Mus musculus above 10000 nM.
